Results reported in EP4722207A1, “OXOISOINDOLINYL-SUBSTITUTED TETRAHYDROPYRIMIDINEDIONE DERIVATIVE AND USE THEREOF” (Gluetacs Therapeutics (Shanghai) Co., Ltd., priority 2023, dated 2024).

Tests used:
Type in all cases: cell-based
Conditions in all cases: compounds at 50 nM and 500 nM, 24 hours
WEE1 = biological target: T1, WEE1 (Homo sapiens, UniProt P30291+Q96SW2); assay: Western-blot assay, substrate protein degradation in hPBMCs: WEE1
T1 construct: effects of the compounds of the present disclosure on the expression of target proteins in cells; endogenous in cells; host or cells: human PBMCs (hPBMCs)

IKZF1 = biological target: T2, IKZF1 (Homo sapiens, UniProt Q13422+Q96SW2); assay: Western-blot assay, substrate protein degradation in hPBMCs: IKZF1
T2 construct: effects of the compounds of the present disclosure on the expression of target proteins in cells; endogenous in cells; host or cells: human PBMCs (hPBMCs)

IKZF2 = biological target: T3, IKZF2 (Homo sapiens, UniProt Q96SW2+Q9UKS7); assay: Western-blot assay, substrate protein degradation in hPBMCs: IKZF2
T3 construct: effects of the compounds of the present disclosure on the expression of target proteins in cells; endogenous in cells; host or cells: human PBMCs (hPBMCs)

IKZF3 = biological target: T4, IKZF3 (Homo sapiens, UniProt Q96SW2+Q9UKT9); assay: Western-blot assay, substrate protein degradation in hPBMCs: IKZF3
T4 construct: effects of the compounds of the present disclosure on the expression of target proteins in cells; endogenous in cells; host or cells: human PBMCs (hPBMCs)

CK1α = biological target: T5, CK1α (Homo sapiens, UniProt P48729+Q96SW2); assay: Western-blot assay, substrate protein degradation in hPBMCs: CK1α
T5 construct: effects of the compounds of the present disclosure on the expression of target proteins in cells; endogenous in cells; host or cells: human PBMCs (hPBMCs)

GSPT1 = biological target: T6, GSPT1 (Homo sapiens, UniProt P15170+Q96SW2); assay: Western-blot assay, substrate protein degradation in hPBMCs: GSPT1
T6 construct: effects of the compounds of the present disclosure on the expression of target proteins in cells; endogenous in cells; host or cells: human PBMCs (hPBMCs)
T6 sequence (P15170 whole entry): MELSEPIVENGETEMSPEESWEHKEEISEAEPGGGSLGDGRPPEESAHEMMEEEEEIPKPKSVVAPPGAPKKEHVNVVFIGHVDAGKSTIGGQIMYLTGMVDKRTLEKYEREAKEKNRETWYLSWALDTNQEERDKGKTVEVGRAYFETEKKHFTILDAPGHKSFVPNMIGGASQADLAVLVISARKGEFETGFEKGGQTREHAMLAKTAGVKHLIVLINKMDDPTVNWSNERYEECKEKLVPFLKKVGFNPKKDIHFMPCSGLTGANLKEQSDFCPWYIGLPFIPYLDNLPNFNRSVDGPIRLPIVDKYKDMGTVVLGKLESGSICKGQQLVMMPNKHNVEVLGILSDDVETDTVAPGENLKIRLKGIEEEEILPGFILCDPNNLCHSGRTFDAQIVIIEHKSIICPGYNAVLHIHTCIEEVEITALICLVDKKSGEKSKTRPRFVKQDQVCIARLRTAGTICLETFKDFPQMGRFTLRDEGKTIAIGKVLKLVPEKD
T6 sequence (Q96SW2 whole entry): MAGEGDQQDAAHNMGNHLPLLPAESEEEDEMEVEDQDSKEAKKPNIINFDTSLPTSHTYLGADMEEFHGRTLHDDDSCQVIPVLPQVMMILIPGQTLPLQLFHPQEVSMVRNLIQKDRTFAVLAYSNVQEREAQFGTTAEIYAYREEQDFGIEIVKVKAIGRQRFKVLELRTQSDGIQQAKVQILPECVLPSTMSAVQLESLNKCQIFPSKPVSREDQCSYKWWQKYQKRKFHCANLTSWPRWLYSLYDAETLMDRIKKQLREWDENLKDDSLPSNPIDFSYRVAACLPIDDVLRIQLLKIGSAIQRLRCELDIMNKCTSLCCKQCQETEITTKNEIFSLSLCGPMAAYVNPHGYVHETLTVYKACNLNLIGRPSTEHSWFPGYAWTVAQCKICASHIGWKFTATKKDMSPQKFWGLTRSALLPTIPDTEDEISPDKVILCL
T6 sequence (Q16531 whole entry partner): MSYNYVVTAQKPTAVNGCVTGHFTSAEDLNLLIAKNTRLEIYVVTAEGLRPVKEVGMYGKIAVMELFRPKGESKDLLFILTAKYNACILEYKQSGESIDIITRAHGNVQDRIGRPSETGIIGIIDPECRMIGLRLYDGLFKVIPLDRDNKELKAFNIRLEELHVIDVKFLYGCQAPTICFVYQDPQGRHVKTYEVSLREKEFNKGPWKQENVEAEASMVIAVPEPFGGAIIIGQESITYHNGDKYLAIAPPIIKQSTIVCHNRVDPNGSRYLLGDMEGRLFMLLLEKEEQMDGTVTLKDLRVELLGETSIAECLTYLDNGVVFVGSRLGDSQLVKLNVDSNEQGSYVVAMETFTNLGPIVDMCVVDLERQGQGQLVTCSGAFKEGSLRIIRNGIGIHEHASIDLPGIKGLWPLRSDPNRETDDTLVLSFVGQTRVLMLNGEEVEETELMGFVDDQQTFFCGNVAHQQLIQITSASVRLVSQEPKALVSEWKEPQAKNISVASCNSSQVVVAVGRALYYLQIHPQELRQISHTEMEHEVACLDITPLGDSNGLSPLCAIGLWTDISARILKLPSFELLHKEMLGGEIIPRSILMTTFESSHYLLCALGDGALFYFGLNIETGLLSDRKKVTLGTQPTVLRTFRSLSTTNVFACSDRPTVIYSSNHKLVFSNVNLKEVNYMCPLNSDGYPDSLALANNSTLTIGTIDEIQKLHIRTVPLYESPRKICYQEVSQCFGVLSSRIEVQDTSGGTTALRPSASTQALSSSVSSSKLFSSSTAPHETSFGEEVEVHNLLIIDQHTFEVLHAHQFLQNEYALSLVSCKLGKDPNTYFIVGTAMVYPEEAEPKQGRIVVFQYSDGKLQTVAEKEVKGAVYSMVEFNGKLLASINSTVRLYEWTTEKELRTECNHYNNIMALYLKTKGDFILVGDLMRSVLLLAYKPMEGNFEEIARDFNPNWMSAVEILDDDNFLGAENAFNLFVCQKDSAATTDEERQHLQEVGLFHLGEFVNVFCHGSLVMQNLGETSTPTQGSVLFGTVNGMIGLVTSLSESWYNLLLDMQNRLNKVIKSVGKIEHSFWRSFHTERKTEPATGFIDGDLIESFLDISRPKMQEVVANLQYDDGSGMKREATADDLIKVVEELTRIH

T5 sequence (P48729 whole entry): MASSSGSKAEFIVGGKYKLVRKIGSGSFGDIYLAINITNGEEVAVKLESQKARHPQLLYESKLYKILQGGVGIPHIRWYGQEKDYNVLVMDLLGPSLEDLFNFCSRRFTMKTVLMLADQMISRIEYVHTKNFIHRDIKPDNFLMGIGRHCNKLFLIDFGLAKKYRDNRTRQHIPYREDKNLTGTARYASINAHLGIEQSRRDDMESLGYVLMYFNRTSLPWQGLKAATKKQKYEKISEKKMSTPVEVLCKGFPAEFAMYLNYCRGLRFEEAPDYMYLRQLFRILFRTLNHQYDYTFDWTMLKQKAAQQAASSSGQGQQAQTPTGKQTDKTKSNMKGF
T5 sequence (Q96SW2 whole entry): as the sequence (Q96SW2 whole entry) above
T5 sequence (Q16531 whole entry partner): as the sequence (Q16531 whole entry partner) above
T2 sequence (Q13422 whole entry): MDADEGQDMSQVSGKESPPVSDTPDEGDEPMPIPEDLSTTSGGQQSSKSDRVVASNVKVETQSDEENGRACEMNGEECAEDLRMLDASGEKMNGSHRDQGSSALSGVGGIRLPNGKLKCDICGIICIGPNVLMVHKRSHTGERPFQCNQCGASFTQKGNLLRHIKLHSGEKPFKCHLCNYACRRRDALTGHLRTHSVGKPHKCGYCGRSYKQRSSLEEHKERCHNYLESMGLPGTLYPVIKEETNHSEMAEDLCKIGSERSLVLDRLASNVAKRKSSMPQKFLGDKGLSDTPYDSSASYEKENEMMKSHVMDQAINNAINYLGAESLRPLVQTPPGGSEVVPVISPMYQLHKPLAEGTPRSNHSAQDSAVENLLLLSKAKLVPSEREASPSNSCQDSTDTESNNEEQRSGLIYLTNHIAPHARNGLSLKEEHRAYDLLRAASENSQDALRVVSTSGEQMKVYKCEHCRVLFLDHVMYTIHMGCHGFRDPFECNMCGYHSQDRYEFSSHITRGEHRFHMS
T2 sequence (Q96SW2 whole entry): as the sequence (Q96SW2 whole entry) above
T2 sequence (Q16531 whole entry partner): as the sequence (Q16531 whole entry partner) above
T1 sequence (P30291 whole entry): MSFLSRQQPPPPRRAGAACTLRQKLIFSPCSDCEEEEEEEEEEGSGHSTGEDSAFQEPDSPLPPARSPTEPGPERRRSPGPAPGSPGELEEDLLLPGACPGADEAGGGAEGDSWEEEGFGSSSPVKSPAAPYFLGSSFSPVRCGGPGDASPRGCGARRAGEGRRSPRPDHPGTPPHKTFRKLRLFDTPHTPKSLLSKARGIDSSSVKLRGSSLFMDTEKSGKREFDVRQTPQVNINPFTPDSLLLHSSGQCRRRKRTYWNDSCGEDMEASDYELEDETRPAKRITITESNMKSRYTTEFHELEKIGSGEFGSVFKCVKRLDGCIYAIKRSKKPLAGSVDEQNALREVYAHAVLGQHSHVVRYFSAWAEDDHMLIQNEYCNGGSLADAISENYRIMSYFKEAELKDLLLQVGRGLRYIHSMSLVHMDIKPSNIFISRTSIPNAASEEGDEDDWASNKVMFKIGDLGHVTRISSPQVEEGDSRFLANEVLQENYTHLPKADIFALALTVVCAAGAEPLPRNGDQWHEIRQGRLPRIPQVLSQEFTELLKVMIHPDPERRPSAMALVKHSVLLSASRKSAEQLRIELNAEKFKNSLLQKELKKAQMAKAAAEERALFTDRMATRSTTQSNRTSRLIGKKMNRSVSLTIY
T1 sequence (Q96SW2 whole entry): as the sequence (Q96SW2 whole entry) above
T1 sequence (Q16531 whole entry partner): as the sequence (Q16531 whole entry partner) above
T4 sequence (Q9UKT9 whole entry): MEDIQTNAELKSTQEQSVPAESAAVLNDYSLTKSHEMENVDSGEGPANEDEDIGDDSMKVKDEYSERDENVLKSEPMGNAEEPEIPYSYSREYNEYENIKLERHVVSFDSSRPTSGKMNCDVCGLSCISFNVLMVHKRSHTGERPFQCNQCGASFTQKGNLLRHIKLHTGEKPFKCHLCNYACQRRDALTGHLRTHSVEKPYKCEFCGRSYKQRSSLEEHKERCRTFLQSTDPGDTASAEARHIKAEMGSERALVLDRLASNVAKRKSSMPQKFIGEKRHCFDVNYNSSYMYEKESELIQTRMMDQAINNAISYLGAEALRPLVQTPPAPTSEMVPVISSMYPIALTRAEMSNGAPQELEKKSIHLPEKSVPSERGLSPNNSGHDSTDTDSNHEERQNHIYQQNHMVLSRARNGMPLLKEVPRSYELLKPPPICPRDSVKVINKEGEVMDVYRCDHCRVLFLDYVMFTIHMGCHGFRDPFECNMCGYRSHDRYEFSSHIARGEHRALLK
T4 sequence (Q96SW2 whole entry): as the sequence (Q96SW2 whole entry) above
T4 sequence (Q16531 whole entry partner): as the sequence (Q16531 whole entry partner) above

| Structure (SMILES) | WEE1 substrate protein remaining % (WEE1) | IKZF1 substrate protein remaining % (IKZF1) | IKZF2 substrate protein remaining % (IKZF2) | IKZF3 substrate protein remaining % (IKZF3) | CK1α substrate protein remaining % (CK1α) | GSPT1 substrate protein remaining % (GSPT1) |
| --- | --- | --- | --- | --- | --- | --- |
| O=C1CCN(N2C(=O)c3ccc(CN4CCN(c5nccc(F)c5F)CC4)cc3C2=O)C(=O)N1 [GT-07162, 5-((4-(3,4-difluoropyridin-2-yl)piperazin-1-yl)methyl)-2-(2,4-dioxotetrahydropyrimidin-1(2H)-yl)isoindoline-1,3-dione] | B ("B" is defined as 80%< substrate protein remaining %≤ 100%) | B ("B" is defined as 80%< substrate protein remaining %≤ 100%) | A ("A" is defined as 0% ≤ substrate protein remaining % ≤ 80%) | B ("B" is defined as 80%< substrate protein remaining %≤ 100%) | A ("A" is defined as 0% ≤ substrate protein remaining % ≤ 80%) | A ("A" is defined as 0% ≤ substrate protein remaining % ≤ 80%) |
| O=C1CCN(N2C(=O)c3ccc(CN4CCN(c5ccncc5Br)CC4)cc3C2=O)C(=O)N1 [GT-07163, 5-((4-(3-bromopyridin-4-yl)piperazin-1-yl)methyl)-2-(2,4-dioxotetrahydropyrimidin-1(2H)-yl)isoindoline-1,3-dione] | B ("B" is defined as 80%< substrate protein remaining %≤ 100%) | B ("B" is defined as 80%< substrate protein remaining %≤ 100%) | A ("A" is defined as 0% ≤ substrate protein remaining % ≤ 80%) | B ("B" is defined as 80%< substrate protein remaining %≤ 100%) | B ("B" is defined as 80%< substrate protein remaining %≤ 100%) | A ("A" is defined as 0% ≤ substrate protein remaining % ≤ 80%) |
| O=C1CCN(N2C(=O)c3ccc(CN4CCN(c5ccncc5F)CC4)cc3C2=O)C(=O)N1 [GT-07164, 2-(2,4-dioxotetrahydropyrimidin-1(2H)-yl)-5-((4-(3-fluoropyridin-4-yl)piperazin-1-yl)methyl)isoindoline-1,3-dione] | B ("B" is defined as 80%< substrate protein remaining %≤ 100%) | B ("B" is defined as 80%< substrate protein remaining %≤ 100%) | A ("A" is defined as 0% ≤ substrate protein remaining % ≤ 80%) | B ("B" is defined as 80%< substrate protein remaining %≤ 100%) | B ("B" is defined as 80%< substrate protein remaining %≤ 100%) | A ("A" is defined as 0% ≤ substrate protein remaining % ≤ 80%) |
| O=C1CCN(N2C(=O)c3ccc(CN4CCN(c5ccncc5Cl)CC4)cc3C2=O)C(=O)N1 [GT-07165, 5-((4-(3-chloropyridin-4-yl)piperazin-1-yl)methyl)-2-(2,4-dioxotetrahydropyrimidin-1(2H)-yl)isoindoline-1,3-dione] | B ("B" is defined as 80%< substrate protein remaining %≤ 100%) | B ("B" is defined as 80%< substrate protein remaining %≤ 100%) | A ("A" is defined as 0% ≤ substrate protein remaining % ≤ 80%) | B ("B" is defined as 80%< substrate protein remaining %≤ 100%) | B ("B" is defined as 80%< substrate protein remaining %≤ 100%) | A ("A" is defined as 0% ≤ substrate protein remaining % ≤ 80%) |
| O=C1CCN(N2C(=O)c3ccc(CN4CCN(c5ccnc(Cl)c5F)CC4)cc3C2=O)C(=O)N1 [GT-07166, 5-((4-(2-chloro-3-fluoropyridin-4-yl)piperazin-1-yl)methyl)-2-(2,4-dioxotetrahydropyrimidin-1(2H)-yl)isoindoline-1,3-dione] | B ("B" is defined as 80%< substrate protein remaining %≤ 100%) | B ("B" is defined as 80%< substrate protein remaining %≤ 100%) | A ("A" is defined as 0% ≤ substrate protein remaining % ≤ 80%) | B ("B" is defined as 80%< substrate protein remaining %≤ 100%) | B ("B" is defined as 80%< substrate protein remaining %≤ 100%) | A ("A" is defined as 0% ≤ substrate protein remaining % ≤ 80%) |
| O=C1CCN(N2C(=O)c3ccc(CN4CCN(c5ccnc(Br)c5F)CC4)cc3C2=O)C(=O)N1 [GT-07167, 5-((4-(2-bromo-3-fluoropyridin-4-yl)piperazin-1-yl)methyl)-2-(2,4-dioxotetrahydropyrimidin-1(2H)-yl)isoindoline-1,3-dione] | B ("B" is defined as 80%< substrate protein remaining %≤ 100%) | B ("B" is defined as 80%< substrate protein remaining %≤ 100%) | A ("A" is defined as 0% ≤ substrate protein remaining % ≤ 80%) | B ("B" is defined as 80%< substrate protein remaining %≤ 100%) | B ("B" is defined as 80%< substrate protein remaining %≤ 100%) | A ("A" is defined as 0% ≤ substrate protein remaining % ≤ 80%) |
| O=C1CCN(N2C(=O)c3ccc(CN4CCN(c5ccnc(Cl)c5Br)CC4)cc3C2=O)C(=O)N1 [GT-07168, 5-((4-(3-bromo-2-chloropyridin-4-yl)piperazin-1-yl)methyl)-2-(2,4-dioxotetrahydropyrimidin-1(2H)-yl)isoindoline-1,3-dione] | B ("B" is defined as 80%< substrate protein remaining %≤ 100%) | B ("B" is defined as 80%< substrate protein remaining %≤ 100%) | A ("A" is defined as 0% ≤ substrate protein remaining % ≤ 80%) | B ("B" is defined as 80%< substrate protein remaining %≤ 100%) | B ("B" is defined as 80%< substrate protein remaining %≤ 100%) | A ("A" is defined as 0% ≤ substrate protein remaining % ≤ 80%) |
| O=C1CCN(N2Cc3cc(CN4CCN(c5ccnc(Cl)c5Cl)CC4)ccc3C2=O)C(=O)N1 [GT-07169, 1-(5-((4-(2,3-dichloropyridin-4-yl)piperazin-1-yl)methyl)-1-oxoisoindolin-2-yl)dihydropyrimidine-2,4(1H,3H)-dione] | A ("A" is defined as 0% ≤ substrate protein remaining % ≤ 80%) | B ("B" is defined as 80%< substrate protein remaining %≤ 100%) | B ("B" is defined as 80%< substrate protein remaining %≤ 100%) | B ("B" is defined as 80%< substrate protein remaining %≤ 100%) | B ("B" is defined as 80%< substrate protein remaining %≤ 100%) | B ("B" is defined as 80%< substrate protein remaining %≤ 100%) |
| O=C1CCN(N2Cc3cc(CN4CCN(c5c(Cl)cncc5Br)CC4)ccc3C2=O)C(=O)N1 [GT-07170, 1-(5-((4-(3-bromo-5-chloropyridin-4-yl)piperazin-1-yl)methyl)-1-oxoisoindolin-2-yl)dihydropyrimidine-2,4(1H,3H)-dione] | A ("A" is defined as 0% ≤ substrate protein remaining % ≤ 80%) | A ("A" is defined as 0% ≤ substrate protein remaining % ≤ 80%) | B ("B" is defined as 80%< substrate protein remaining %≤ 100%) | B ("B" is defined as 80%< substrate protein remaining %≤ 100%) | B ("B" is defined as 80%< substrate protein remaining %≤ 100%) | B ("B" is defined as 80%< substrate protein remaining %≤ 100%) |
| O=C1CCN(N2Cc3cc(CN4CCN(c5c(F)cncc5Cl)CC4)ccc3C2=O)C(=O)N1 [GT-07171] | A ("A" is defined as 0% ≤ substrate protein remaining % ≤ 80%) | B ("B" is defined as 80%< substrate protein remaining %≤ 100%) | B ("B" is defined as 80%< substrate protein remaining %≤ 100%) | B ("B" is defined as 80%< substrate protein remaining %≤ 100%) | B ("B" is defined as 80%< substrate protein remaining %≤ 100%) | B ("B" is defined as 80%< substrate protein remaining %≤ 100%) |
| O=C1CCN(N2C(=O)c3ccc(CN4CCN(c5ncccn5)CC4)cc3C2=O)C(=O)N1 [GT-07285, 2-(2,4-dioxotetrahydropyrimidin-1(2H)-yl)-5-((4-(pyrimidin-2-yl)piperazin-1-yl)methyl)isoindoline-1,3-dione] | A ("A" is defined as 0% ≤ substrate protein remaining % ≤ 80%) | A ("A" is defined as 0% ≤ substrate protein remaining % ≤ 80%) | B ("B" is defined as 80%< substrate protein remaining %≤ 100%) | B ("B" is defined as 80%< substrate protein remaining %≤ 100%) | B ("B" is defined as 80%< substrate protein remaining %≤ 100%) | B ("B" is defined as 80%< substrate protein remaining %≤ 100%) |
| O=C1CCN(N2C(=O)c3ccc(CN4CCN(c5nccc(Cl)c5Br)CC4)cc3C2=O)C(=O)N1 [GT-07291, 5-((4-(3-bromo-4-chloropyridin-2-yl)piperazin-1-yl)methyl)-2-(2,4-dioxotetrahydropyrimidin-1(2H)-yl)isoindoline-1,3-dione] | A ("A" is defined as 0% ≤ substrate protein remaining % ≤ 80%) | B ("B" is defined as 80%< substrate protein remaining %≤ 100%) | B ("B" is defined as 80%< substrate protein remaining %≤ 100%) | B ("B" is defined as 80%< substrate protein remaining %≤ 100%) | B ("B" is defined as 80%< substrate protein remaining %≤ 100%) | A ("A" is defined as 0% ≤ substrate protein remaining % ≤ 80%) |
